# Results from patent US4477443A, “Tylosin derivatives, their preparation and pharmaceutical compositions containing them” (Zaidan Hojin Biselbutsu Kagaku Kenkyu Kai (Microbial …, priority 1981, dated 1984).
# Like-named read-outs stand apart in the source and are kept apart here.
# Assays:
# Format in all cases: cell-based
# [1] = test system: Staph. aureus 193; test: antimicrobial activity (MIC), Table I; conditions: Staphylococcus aureus; Staph. aureus 193; read-out: MIC
# [2] = test system: Staph. aureus 209 P; test: antimicrobial activity (MIC), Table I; conditions: Staphylococcus aureus; Staph. aureus 209 P; read-out: MIC
# [3] = test system: Staph. aureus MS 9861; test: antimicrobial activity (MIC), Table I; conditions: Staphylococcus aureus, MS9861; Staph. aureus MS 9861; read-out: MIC
# [4] = test system: Sarcina lutea PCI 1001; test: antimicrobial activity (MIC), Table I; conditions: Micrococcus luteus, PCI1001; Sarcina lutea PCI 1001; read-out: MIC
# [5] = test system: B. subtilis NRRL B-558; test: antimicrobial activity (MIC), Table I; conditions: Bacillus subtilis, NRRLB558; B. subtilis NRRL B-558; read-out: MIC
# [6] = test system: Coryn. bovis 1810; test: antimicrobial activity (MIC), Table I; conditions: Corynebacterium bovis; Coryn. bovis 1810; read-out: MIC
# [7] = test system: E. coli NIHJ; test: antimicrobial activity (MIC), Table I; conditions: Escherichia coli; E. coli NIHJ; read-out: MIC
# [8] = test system: E. coli K-12; test: antimicrobial activity (MIC), Table I; conditions: Escherichia coli, K12; E. coli K-12; read-out: MIC
# [9] = test system: E. coli K-12 R-5; test: antimicrobial activity (MIC), Table I; conditions: Escherichia coli, K12R5; E. coli K-12 R-5; read-out: MIC
# [10] = test system: E. coli K-12 ML 1410; test: antimicrobial activity (MIC), Table I; conditions: Escherichia coli, K12ML1410
# [11] = test system: E. coli K-12 LA 290 R 55; test: antimicrobial activity (MIC), Table I; conditions: Escherichia coli
# [12] = test system: Kleb. pneumoniae PCI 602; test: antimicrobial activity (MIC), Table I; conditions: Klebsiella pneumoniae, PCI602; Kleb. pneumoniae PCI 602; read-out: MIC
# [13] = test system: Shigella dysenteriae JS 11910; test: antimicrobial activity (MIC), Table I; conditions: JS11910
# [14] = test system: Sal. enteritidis 1891; test: antimicrobial activity (MIC), Table I; conditions: Salmonella enterica; Sal. enteritidis 1891; read-out: MIC
# [15] = test system: Pro. vulgaris OX-19; test: antimicrobial activity (MIC), Table I; conditions: Proteus vulgaris, OX19
# [16] = test system: B. subtilis ATCC 6633; test: antimicrobial activity (MIC), Table II; conditions: Bacillus subtilis, ATCC6633; B. subtilis ATCC 6633; read-out: MIC
# [17] = test system: B. cereus; test: antimicrobial activity (MIC), Table II; conditions: Bacillus cereus; B. cereus; read-out: MIC
# [18] = test system: Staph. aureus ATCC 6538P; test: antimicrobial activity (MIC), Table II; conditions: Staphylococcus aureus, ATCC6538P
# [19] = test system: Staph. aureus KC-11; test: antimicrobial activity (MIC), Table II; conditions: Staphylococcus aureus, KC11
# [20] = test system: Staph. aureus 226; test: antimicrobial activity (MIC), Table II; conditions: Staphylococcus aureus
# [21] = test system: Staph. epidermidis IID 866; test: antimicrobial activity (MIC), Table II; conditions: Staphylococcus epidermidis, IID866
# [22] = test system: Staph. epidermidis IID 886; test: antimicrobial activity (MIC), Table II; conditions: Staphylococcus epidermidis, IID886
# [23] = Pro. vulgaris OX-19, read-out: MIC
# [24] = E. coli K-12 ML 1410, read-out: MIC
# [25] = Staph. aureus ATCC 6538P, read-out: MIC
# [26] = Staph. aureus KC-11, read-out: MIC
# [27] = Staph. aureus 226, read-out: MIC
MIC [16] [µg/mL],MIC [17] [µg/mL],"MIC [18, 25] [µg/mL]","MIC [19, 26] [µg/mL]","MIC [20, 27] [µg/mL]",MIC [22] [µg/mL],SMILES,MIC [1] [µg/mL],MIC [2] [µg/mL],MIC [3] [µg/mL],MIC [4] [µg/mL],MIC [5] [µg/mL],MIC [6] [µg/mL],MIC [7] [µg/mL],MIC [8] [µg/mL],MIC [9] [µg/mL],MIC [11] [µg/mL],MIC [12] [µg/mL],MIC [13] [µg/mL],MIC [14] [µg/mL],also measured
,,,,,,"CCC1OC(=O)CC(O)C(C)C(OC2OC(C)C(O)C(N(C)C)C2O)C(CC=O)CC(C)C(=O)C=CC(C)=CC1CN(CC)CC (centres unmarked) [Example 5, 23-deoxy-23-diethylamino mycaminosyl tylonolide]",0.78,0.78,12.5,< 0.2,0.78,0.78,1.56,1.56,1.56,3.12,1.56,1.56,3.12,MIC [10]: 3.12 µg/mL; MIC [15]: 1.56 µg/mL
,,,,,,"CCCN(CCC)CC1C=C(C)C=CC(=O)C(C)CC(CC=O)C(OC2OC(C)C(O)C(N(C)C)C2O)C(C)C(O)CC(=O)OC1CC (centres unmarked) [Example 6, 23-deoxy-23-dipropylaminomycaminosyl tylonolide]",< 0.2,< 0.2,1.56,< 0.2,0.39,< 0.2,0.78,1.56,1.56,1.56,0.78,0.39,1.56,"MIC [10]: 3.12 µg/mL; MIC [15, 23]: 1.56 µg/mL"
,,,,,,"CCC1OC(=O)CC(O)C(C)C(OC2OC(C)CC(N(C)C)C2O)C(CC=O)CC(C)C(=O)C=CC(C)=CC1CN(C)C (centres unmarked) [Example 9, 23,4'-dideoxy-23-dimethylaminomycaminosyl tylonolide]",< 0.2,< 0.2,0.39,0.2,< 0.2,0.2,< 0.2,0.39,0.39,0.39,0.2,< 0.2,< 0.2,MIC [10]: 0.39 µg/mL; MIC [15]: 0.78 µg/mL
,,,,,,"CCC1OC(=O)CC(O)C(C)C(OC2OC(C)CC(N(C)C)C2O)C(CC=O)CC(C)C(=O)C=CC(C)=CC1CN(CC)CC (centres unmarked) [Example 10, 23,4'-dideoxy-23-diethylaminomycaminosyl tylonolide]",< 0.2,< 0.2,0.78,< 0.2,< 0.2,< 0.2,< 0.2,0.39,0.39,0.39,0.2,< 0.2,0.39,"MIC [10, 24]: 0.39 µg/mL; MIC [15, 23]: 0.39 µg/mL"
,,,,,,"CCC1OC(=O)CC(O)C(C)C(OC2OC(C)C(O)C(N(C)C)C2O)C(CC=O)CC(C)C(=O)C=CC(C)=CC1CN1CCCCC1 (centres unmarked) [Example 13, 23-deoxy-23-piperidinomycaminosyl tylonolide]",0.39,0.39,0.78,< 0.2,0.39,< 0.2,0.78,1.56,1.56,1.56,0.39,< 0.2,0.78,"MIC [10]: 3.12 µg/mL; MIC [15, 23]: 1.56 µg/mL"
,,,,,,"CCC1OC(=O)CC(O)C(C)C(OC2OC(C)CC(N(C)C)C2O)C(CC=O)CC(C)C(=O)C=CC(C)=CC1CN1CCCCCC1 (centres unmarked) [Example 18, 23,4'-dideoxy-23-hexamethyleneiminomycaminosyl tylonolide]",< 0.2,< 0.2,0.78,< 0.2,< 0.2,< 0.2,0.39,0.78,0.78,0.78,0.39,< 0.2,< 0.2,"MIC [10, 24]: 0.78 µg/mL; MIC [15, 23]: 0.78 µg/mL"
1.56,1.56,0.78,0.78,0.78,,"CCC1OC(=O)CC(O)C(C)C(OC2OC(C)CC(N(C)C)C2O)C(CC=O)CC(C)C(=O)C=CC(C)=CC1COC(=O)CN1CCCC1 (centres unmarked) [Example 52, 23-O-pyrrolidinoacetyl-4'-deoxymycaminosyl tylonolide]",,,,,,,,,,,,,,MIC [21]: 0.78 µg/mL
0.78,≤ 0.2,0.78,0.78,1.56,0.78,"CCC1OC(=O)CC(O)C(C)C(OC2OC(C)CC(N(C)C)C2O)C(CC=O)CC(C)C(=O)C=CC2(C)OC2C1CN(C)C (centres unmarked) [Example 61, 23,4'-dideoxy-23-dimethylamino-12,13-epoxymycaminosyl tylonolide]",,,,,,,,,,,,,,
1.56,≤ 0.2,0.78,1.56,1.56,0.78,"CCC1OC(=O)CC(O)C(C)C(OC2OC(C)CC(N(C)C)C2O)C(CC=O)CC(C)C(=O)C=CC(C)=CC1CN(C)CCO (centres unmarked) [Example 66, 23,4'-dideoxy-23-N-(2-hydroxyethyl)methylaminomycaminosyl tylonolide]",,,,,,,,,,,,,,
0.78,0.39,0.78,0.78,0.78,0.78,"CCC1OC(=O)CC(O)C(C)C(OC2OC(C)CC(N(C)C)C2O)C(CC=O)CC(C)C(=O)C=CC(C)=CC1CN(CC)CCO (centres unmarked) [Example 67, 23,4'-dideoxy-23-N-ethyl(2-hydroxyethyl)aminomycaminosyl tylonolide]",,,,,,,,,,,,,,
0.78,0.78,0.78,0.78,0.78,0.78,"CCC1OC(=O)CC(O)C(C)C(OC2OC(C)CC(N(C)C)C2O)C(CC=O)CC(C)C(=O)C=CC(C)=CC1CN(CC)CC(F)(F)F (centres unmarked) [Example 74, 23,4'-Dideoxy-23-N-(2,2,2-trifluoroethyl)ethylaminomycaminosyl tylonolide]",,,,,,,,,,,,,,
0.78,,0.78,0.78,0.78,0.78,"CCC1OC(=O)CC(O)C(C)C(OC2OC(C)C(O)C(N(C)C)C2O)C(CC=O)CC(C)C(=O)C=CC(C)=CC1CN1CCCCC1C (centres unmarked) [Example 87, 23-deoxy-23-(2-methylpiperidino)mycaminosyl tylonolide]",,,,,,,,,,,,,,
0.78,,0.78,0.78,0.78,0.39,"CCC1OC(=O)CC(O)C(C)C(OC2OC(C)C(O)C(N(C)C)C2O)C(CC=O)CC(C)C(=O)C=CC(C)=CC1CN1CCCC(C)C1 (centres unmarked) [Example 88, 23-deoxy-23-(3-methylpiperidino)mycaminosyl tylonolide]",,,,,,,,,,,,,,
0.78,,0.78,0.78,0.78,0.78,"CCC1OC(=O)CC(O)C(C)C(OC2OC(C)C(O)C(N(C)C)C2O)C(CC=O)CC(C)C(=O)C=CC(C)=CC1CN1CCC(C)CC1 (centres unmarked) [Example 89, 23-deoxy-23-(4-methylpiperidino)mycaminosyl tylonolide]",,,,,,,,,,,,,,

SMILES,MIC [16] [µg/mL],MIC [17] [µg/mL],"MIC [18, 25] [µg/mL]","MIC [19, 26] [µg/mL]","MIC [20, 27] [µg/mL]",MIC [22] [µg/mL],MIC [1] [µg/mL],MIC [2] [µg/mL],MIC [3] [µg/mL],MIC [4] [µg/mL],MIC [5] [µg/mL],MIC [6] [µg/mL],MIC [7] [µg/mL],MIC [8] [µg/mL],MIC [9] [µg/mL],MIC [11] [µg/mL],MIC [12] [µg/mL],MIC [13] [µg/mL],MIC [14] [µg/mL],also measured
"CCC1OC(=O)CC(O)C(C)C(OC2OC(C)CC(N(C)C)C2O)C(CC=O)CC(C)C(=O)C=CC(C)=CC1COC(=O)CSc1ccccn1 (centres unmarked) [Example 53, 23-O-(pyridine-2-thioyl)acetyl-4'-deoxymycaminosyl tylonolide]",0.39,≤ 0.2,,,,≤ 0.2,,,,,,,,,,,,,,MIC [18]: 0.39 µg/mL; MIC [19]: 0.39 µg/mL; MIC [20]; 226: 0.39 µg/mL
"CCC1OC(=O)CC(O)C(C)C(OC2OC(C)C(O)C(N(C)C)C2O)C(CC=O)CC(C)C(=O)C=CC(C)=CC1CN1CCCCCCC1 (centres unmarked) [Example 90, 23-deoxy-23-heptamethyleneiminomycaminosyl tylonolide]",0.39,,,,,0.39,,,,,,,,,,,,,,MIC [18]: 0.39 µg/mL; MIC [19]: 0.39 µg/mL; MIC [20]; 226: 0.39 µg/mL
"CCC1OC(=O)CC(O)C(C)C(OC2OC(C)CC(N(C)C)C2O)C(CC=O)CC(C)C(=O)C=CC(C)=CC1CNC1CC1 (centres unmarked) [Example 96, 23,4'-dideoxy-23-cyclopropylaminomycaminosyl tylonolide]",0.78,0.39,,0.78,0.78,0.39,,,,,,,,,,,,,,MIC [18]: 0.39 µg/mL
